Assay results: US20260000781A1, “FC CONJUGATES INCLUDING AN INHIBITOR OF CD73 AND USES THEREOF” (Cidara Therapeutics, Inc., priority 2022, published 2026)
Where “and” joins values, the source holds several entries; their conditions need not be identical. Equal entries are not always repeated.

How the values were obtained:
[1] = target: T1, CD73 expressed on the MDA-MB-231 cell surface (Homo sapiens, UniProt P21589); assay: Cell-based CD73 enzyme inhibition assay using MDA-MB-231 cells (CellTiter-Glo)
T1 construct: host or cells: MDA-MB-231
T1 sequence (P21589 27-549): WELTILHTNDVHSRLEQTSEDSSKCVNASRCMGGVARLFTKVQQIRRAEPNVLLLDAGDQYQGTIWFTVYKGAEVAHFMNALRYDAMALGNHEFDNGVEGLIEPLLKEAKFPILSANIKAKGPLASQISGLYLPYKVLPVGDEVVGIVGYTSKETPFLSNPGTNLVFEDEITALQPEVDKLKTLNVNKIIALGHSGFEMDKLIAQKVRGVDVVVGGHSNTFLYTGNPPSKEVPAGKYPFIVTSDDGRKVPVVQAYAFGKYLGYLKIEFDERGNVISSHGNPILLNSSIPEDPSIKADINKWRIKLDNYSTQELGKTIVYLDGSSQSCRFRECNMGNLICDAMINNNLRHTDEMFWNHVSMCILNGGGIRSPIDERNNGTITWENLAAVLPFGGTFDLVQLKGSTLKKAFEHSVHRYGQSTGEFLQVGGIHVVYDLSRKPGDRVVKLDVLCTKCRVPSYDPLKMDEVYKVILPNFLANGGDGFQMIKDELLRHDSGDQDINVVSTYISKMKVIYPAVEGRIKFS
Procedure: The cell-based CD73 enzyme inhibition assay was performed essentially as described above for the cell-free assay, with the following modifications. MDA-MB-231 human breast adenocarcinoma cells (ATCC CRM-HTB-26) were seeded at 2×10^4 cells/well/100 μL into 96-well tissue culture-treated plates (Corning Costar cat no. 3596) and incubated overnight at 37° C., 5% CO2. Cells were incubated with test inhibitors (50 μL/well) and AMP (25 μL/well, final 400 μM) for 3 h at 37° C., 5% CO2 to allow for interaction with CD73 expressed on the MDA-MB-231 cell surface. The 96-well plate was then centrifuged at 125×g for 5 min at room temperature and ATP (25 μL/well, 100 μM final) was combined with supernatant (25 μL/well) in a white opaque 96-well plate (Corning Costar cat no. 3912). The CD73 activity in the supernatant was quantified using the CellTiter-Glo kit (Promega cat no. G7571). Percent CD73 inhibition (y-axis) versus log10 inhibitor concentration (x-axis) were plotted using GraphPad Prism Version 8 and IC50's calculated using nonlinear regression analysis (Sigmoidal, 4 PL).
An additional assay was performed to test the effect of linker length on IC50 potency using the cell-based CD73 enzyme inhibition assay. Conjugate 194, Conjugate 195, and Conjugate 196 have the same small molecule targeting moiety (Int) as Conjugate 172c (batch 9) but with varying linker lengths.

[2] = target: T2, CD73 (Homo sapiens, UniProt P21589); assay: Cell-free CD73 enzyme inhibition assay (BPS Bioscience kit, colorimetric free phosphate); assay type: biochemical; conditions: AMP 100 μM, 25 min at 37° C.
T2 sequence (P21589 27-549): T1 sequence (P21589 27-549)
Procedure: (§1) The cell-free CD73 enzyme inhibition assay was performed in a 96-well plate format using the CD73 Inhibitor Screening Assay Kit in accordance with the manufacturer's instructions (BPS Bioscience cat no. 72055). […] Colorimetric detection reagent was then added (100 μL/well) and the free phosphate from the CD73 reaction was measured by reading the absorbance at 630 nm using the EnSpire multimode plate reader (PerkinElmer). Wells without test inhibitor (CD73 positive control) were included on each plate. Blank wells without test inhibitor and CD73 were subtracted from all wells. Percent CD73 inhibition (y-axis) versus log10 inhibitor concentration (x-axis) was plotted using GraphPad Prism Version 8 and IC50's calculated using nonlinear regression analysis (Sigmoidal, 4 PL).

[3] = target: T2, CD73; assay: Cell-free CD73 enzyme inhibition assay; assay type: biochemical; conditions: recombinant human CD73 0.1 ng/μL, AMP 100 μM, 25 min at 37° C. (FIG. 1A, 1B)
Procedure: as §1, with “(cat” for “(BPS Bioscience cat”, “72055, BPS Bioscience).” for “72055).”, “inhibition” for “inhibition (y-axis)”, “versus” for “versus log10”, “concentration” for “concentration (x-axis)”
as §1

[4] = target: T3, CD73 on MDA-MB-231 cells (Homo sapiens, UniProt P21589); assay: CD73 internalization assay (Fab-ZAP); assay type: cell-based
T3 construct: host or cells: MDA-MB-231
T3 sequence (P21589 27-549): T1 sequence (P21589 27-549)
Procedure: Cells were plated into white tissue culture-treated 96 well plates (Corning cat no. 3917) at 5×10^3 to 1×10^4 cells/well in 100 μL in RPMI (Gibco cat no. 11875093)+10% FBS (Gibco cat no. 16140071) and incubated overnight at 37° C. with 5% CO2. Serial dilutions of test article (TA) from 0.00002 nM-200 nM (2× final concentration) were pre-incubated with 100 nM Fab-ZAP reagent (2× final concentration) for 30 min at room temperature. Cells were washed once with 150 μL/well 1×PBS (Gibco cat no. 10010023), followed by the addition of 50 μL/well of media and 50 μL/well TA/Fab-ZAP mix. Cells were then incubated for 72 h at 37° C. with 5% CO2 and viability was determined after 72 h via the CellTiter-Glo assay (Promega cat no. G7570) following the manufacturer's instructions. Cell viability RLU versus log10 nM drug concentration was plotted using GraphPad Prism. The % CD73 internalization was calculated using the following formula: % CD73 internalization=[1−RLU (sample)/RLU (untreated cells)]×100%. The EC50's for each TA was calculated using the 4 PL non-linear regression analysis in GraphPad Prism software.
Cells were plated into white tissue culture-treated 96 well plates (Corning cat no. 3917) at 2×10^3 cells/well in 100 μL in RPMI (Gibco cat no. 11875093)+10% FBS (Gibco cat no. 16140071) and incubated overnight at 37° C. with 5% CO2. Serial dilutions of test article (TA) from 0.06 nM-20 nM (2× final concentration) were pre-incubated with 100 nM Fab-ZAP reagent (2× final concentration) for 30 min at room temperature. […] Cells were then incubated for 96 h at 37° C. with 5% CO2 and viability was determined after 96 h via the CellTiter-Glo assay (Promega cat no. G7570) following the manufacturer's instructions. […] The % CD73 internalization was calculated using the following formula: % CD73 internalization=[1−RLU (sample)/RLU (untreated cells)]×100%. The EC50's for each TA was calculated using the 4 PL non-linear regression analysis in GraphPad Prism software.

[5] = MDA-MB-231 cells, AMP 400 μM, 3 h, Table 29 experiment

IC50 [1, 5] | IC50 ([1]; additional assay on linker length, Table 30 experiment) [nM] | IC50 [2] | IC50 [3] [nM] | Cell internalization EC50 (nM) ([4]; 72 h (Table 11)) | Cell internalization EC50 (nM) ([4]; 96 h (Table 23)) | SMILES
3.7 nM | 4 | 12.9 nM | 4.1 | did not induce receptor internalization | – | O=P(O)(O)COC[C@H]1O[C@@H](n2ncc3c(N4CC5(CCc6ccccc65)C4)nc(Cl)nc32)[C@H](O)[C@@H]1O [SHR170008]
0.9 nM and 0.87 nM | – | 3.8 nM and 3.79 nM | 1.3 | did not induce receptor internalization | No activity | COC[C@](CO)(OC[C@H]1O[C@@H](n2ncc3c(NC4CCCC4)nc(Cl)nc32)[C@H](O)[C@@H]1O)P(=O)(O)O [OP-5244]
